Data published in US20240092779A1, “USP1 INHIBITORS AND USES THEREOF” (Zentaur Therapeutics USA Inc., priority 2022, published 2024).
pIC50: −log10 of the molar value. Converted amounts (≈) assume the structure as drawn.

Key:
[1] = system: MDA-MB-436 cells; test: CTG Protocol (MDA-MB-436 GI50), antiproliferative activity; format: cell-based, human; details: Homo sapiens, 168 h; MDA-MB-436 cells (BRCA1 mutation), 7-day incubation, CellTiter-Glo
Procedure: CTG Protocol (MDA-MB-436 GI50)
Antiproliferative activity of USP1 inhibitors was determined using breast cancer cell line MDA-MB-436 that harbors BRCA1 mutation. MDA-MB-436 cells (ATCC, HTB-130) was seeded with a seeding density of 1000 cells per well and 95 μL DMEM medium (Gibco, 10566016) into 96-well cell plates (Corning, 3610), and incubated overnight at 37° C. and 5% CO2. Compounds were solubilized in DMSO (Solarbio, D8371) as 10 mM stock solution, and then series diluted (3 folds) with DMSO for 9-point dose-response testing. The resulted series dilutions were then jump-diluted 50-fold by cell culture medium to afford the 20×stock solutions (containing 2% DMSO). Treatment was initiated by adding 5 μL of 20×stock solution to the assay plate and incubated at 37° C. and 5% CO2. At the end of 7-day incubation, cell assay plates were removed from incubation and equilibrated to room temperature (20 min). Then 100 μL of CellTiter-Glo (Promega, G9243) reagent, prepared per manufacturer's protocol, was added to each well, and the resulted plates were centrifuged 1,000 rpm for 1 minute, incubated at room temperature in the dark for 20 minutes, sealed with Perkin Elmer sticky film, and the luminescence signal read by Envision (Perkin Elmer).
Data analysis • a) % Inhibition was calculated using following equation: […]
X: compound concentration; Y: % Inhibition
(§1) Certain compounds were tested in the assays.

[2] = target: T1, recombinant USP1/UAF1 enzyme complex (Homo sapiens, UniProt O94782); test: Enzyme assay: deubiquitinase fluorometric assay with ubiquitin-Rhodamine substrate; format: biochemical; details: USP1/UAF1, Ub-Rho110 substrate, 2 hours preincubation, 1 hour reaction
T1 construct: purchased Biortus
Procedure: Enzymatic inhibitory potency of the compounds was assessed in a deubiquitinase fluorometric assay using ubiquitin-Rhodamine (Ub-Rho110, R&D Systems) as substrate and the recombinant USP1/UAF1 enzyme complex (Biortus). Assays were performed in a final volume of 12 μL using black 384-well plates (Corning #4514) containing 50 mM HEPES (pH 7.5, BioRoYee), 0.5 mM EDTA, 1 mM dithiothreitol, 0.1 mg/mL bovine serum albumin, 50 nM Ub-Rhol10, 0.004 nM USP1/UAF1, and series diluted compounds from 10 μM to 0.5 nM (10 dilution steps). Assay-ready plates containing 40 nL of Echo-dispensed compound in DMSO were reconstituted with 2 μL of ddH2O, then 5 μL of USP1/UAF1 enzyme mixture was added and preincubated at room temperature for 2 hours. Enzymatic reaction was initiated by the addition of […] substrate mixture and assay allowed to proceed for 1 hour at room temperature before quenching with 3 μL of 150 mM citric acid. Fluorescence signal was detected via TECAN SPARK with excitation at 485 nm and emission at 535 nm. Data analysis was done using GraphPad Prism8 and IC50 values were obtained by 4-parameter logistic curve fitting.
as §1

[3] = Liver microsomal stability (HLM); format: in vitro ADME; details: human, liver microsomes, human liver microsomes 0.5 mg/mL, 1 μM compound, NADPH
Procedure: Liver Microsomal Stability
Certain Compounds of the Disclosure were assessed for ADME metabolic stability in human liver microsomes (HLM).
Samples were prepared by adding 222.5 μL of a master solution (100 mM phosphate buffer and 0.5 mg/mL liver microsomes (HLM)) and 25 μL of a 10 mM NADPH solution to incubation plates, which were then warmed for 10 min. Each compound was separately dissolved in DMSO to prepare 10 mM stock solutions, which were then diluted to 100 μM with acetonitrile. A reaction was started by adding 2.5 μL of the […] solution of each compound to separate incubation plates such that the final concentration of for each compound in each plate was 1 μM. Aliquots of 30 μL were taken from the reaction solution at 0.5, 5, 15, 30 and 60 minutes. The reaction was stopped by the addition of 5 volumes of cold acetonitrile with IS (100 nM alprazolam, 200 nM caffeine and 100 nM tolbutamide). Aliquot of 100 μL of the supernatant was diluted by 100 μL ultra-pure water, and the mixture was used for LC/MS/MS analysis. Peak areas were determined from extracted ion chromatograms. […]. The percentage of remaining parent was calculated from peak area of test compound or PC. The slope value, k, is determined by linear regression of the natural logarithm of percent parent remaining vs. incubation time curve. All calculations are carried out using Microsoft Excel.
The in vitro half-life (in vitro t1/2) is determined from the slope value:
Conversion of the in vitro t1/2 (in min) into the in vitro intrinsic clearance (in vitro CLint, (HLM Clint (μL/min/mg proteins))) is done using the following equation: […]
A: HLM Clint <10 μL/min/mg; B: 10 μL/min/mg≤HLM Clint <50 μL/min/mg; C: HLM Clint ≥50 μL/min/mg.

[4] = Solubility in FaSSIF (Fasted State Simulated Intestinal Fluid); format: physicochemical; details: kinetic from dmso stock, FaSSIF pH 6.5, 25° C.
Procedure: Solubility in FaSSIF (Fasted State Simulated Intestinal Fluid)
Certain Compounds of the Disclosure were assessed for the apparent solubility in FaSSIF.
0.420 g of NaOH, 3.438 g of NaH2PO4 and 6.186 g of NaCl were dissolved into about 900 mL ultrapure water. The solution was adjusted to the pH of 6.5 with 1N NaOH or 1N HCl. The solution was then diluted with ultrapure water to 1000 mL at room temperature. The resulting solution is used as buffer solution.
2.240 g of FaSSIF Powder was added to about 500 mL of above-mentioned buffer solution. The solution was stirred until powder was completely dissolved. Then the solution was diluted with buffer A to 1000 mL at room temperature. This solution is FaSSIF to be used in the following experiment.
15 μL of stock solution (10 mM) of each sample was placed into their proper 96-well rack. 485 μL of FaSSIF was added into each vial of the cap-less solubility sample plate. One stir stick was added to each vial and the vial was sealed using a molded PTFE/Silicone plug. The solubility sample plate was transferred to the Eppendorf Thermomixer Comfort plate shaker and shaked at 25° C. at 1100 RPM for 2 hours. After completion of the 2 hours, the stir sticks using a big magnet were removed. The samples from the solubility sample plate were transferred into the filter plate. Using the vacuum manifold, all the samples are filtered. Aliquot of 5 μL was taken from filtrate followed by addition of 5 μL DMSO and 490 μL of a mixture of H2O and acetonitrile containing internal standard (1:1).
3 μM Standards solution (STD) was prepared from the 10 mM DMSO STD plate.as following: transferring 6 μL into the remaining empty plate, adding 194 μL of DMSO to that plate to have a STD concentration of 300 μM. From the 300 μM DMSO STD plate, 5 μL solution was transferred into the remaining empty plate. Addition of 5 μL PBS and 490 μL of a mixture of H2O and acetonitrile containing internal standard (1:1) to that plate furnished a final STD concentration of 3 μM STD solution.
The samples are analyzed and quantified against the standard of known concentration using LC/MS/MS, calculating the solubility of the test compound as following (DF means the dilution factor):
[Sample solubility in FsSSIF (04)]=Area Ratio sample×DF sample×[STD]/Area Ratio STD

T1 sequence (O94782 whole entry): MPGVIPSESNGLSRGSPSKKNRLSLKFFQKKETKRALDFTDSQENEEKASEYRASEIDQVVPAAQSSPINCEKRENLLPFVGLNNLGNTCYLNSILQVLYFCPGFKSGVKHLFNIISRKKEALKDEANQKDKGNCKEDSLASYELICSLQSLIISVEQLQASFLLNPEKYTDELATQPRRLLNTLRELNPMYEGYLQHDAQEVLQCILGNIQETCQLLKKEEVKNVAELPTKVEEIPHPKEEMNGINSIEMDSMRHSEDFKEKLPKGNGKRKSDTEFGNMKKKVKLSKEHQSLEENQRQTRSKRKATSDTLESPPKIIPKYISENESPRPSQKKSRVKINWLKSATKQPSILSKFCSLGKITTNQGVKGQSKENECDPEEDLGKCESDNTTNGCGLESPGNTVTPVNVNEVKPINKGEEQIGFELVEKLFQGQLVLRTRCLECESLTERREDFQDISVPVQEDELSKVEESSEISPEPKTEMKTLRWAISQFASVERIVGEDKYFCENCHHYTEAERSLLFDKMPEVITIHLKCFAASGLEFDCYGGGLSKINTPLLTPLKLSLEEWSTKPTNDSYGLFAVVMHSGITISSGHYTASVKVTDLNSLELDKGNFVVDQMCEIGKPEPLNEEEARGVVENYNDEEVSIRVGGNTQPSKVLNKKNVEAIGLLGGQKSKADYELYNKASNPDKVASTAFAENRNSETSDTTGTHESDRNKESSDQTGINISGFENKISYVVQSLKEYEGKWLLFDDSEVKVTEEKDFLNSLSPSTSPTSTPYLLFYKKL
T1 sequence (Q8TAF3 whole entry partner): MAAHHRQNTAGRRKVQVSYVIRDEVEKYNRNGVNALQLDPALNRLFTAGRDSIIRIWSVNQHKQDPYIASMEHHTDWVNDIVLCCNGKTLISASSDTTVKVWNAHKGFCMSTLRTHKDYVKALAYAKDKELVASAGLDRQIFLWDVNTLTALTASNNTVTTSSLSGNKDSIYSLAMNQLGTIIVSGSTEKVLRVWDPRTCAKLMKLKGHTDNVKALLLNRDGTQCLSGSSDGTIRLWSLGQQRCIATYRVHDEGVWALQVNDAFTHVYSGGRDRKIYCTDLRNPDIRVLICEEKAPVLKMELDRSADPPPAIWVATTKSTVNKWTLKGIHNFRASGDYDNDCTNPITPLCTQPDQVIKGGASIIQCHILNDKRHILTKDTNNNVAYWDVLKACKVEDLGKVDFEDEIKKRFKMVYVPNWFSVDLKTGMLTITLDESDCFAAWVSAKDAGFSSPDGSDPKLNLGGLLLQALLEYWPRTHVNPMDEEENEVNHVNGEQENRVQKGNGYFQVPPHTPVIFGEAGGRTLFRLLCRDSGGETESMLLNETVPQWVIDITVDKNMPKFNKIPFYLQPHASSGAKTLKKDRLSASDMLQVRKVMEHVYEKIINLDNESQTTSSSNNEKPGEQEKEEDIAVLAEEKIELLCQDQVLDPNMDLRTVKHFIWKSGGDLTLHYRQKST

| GI50 [1] [µM] | pIC50 [2] | microsomal CLint at 1 μM [3] [µL/min/mg] | solubility at 2 h [4] [µM] | SMILES |
| --- | --- | --- | --- | --- |
| 0.01 to 0.1 | 7.00 to 8.00 |  |  | COc1ncnc(C2CC2)c1-c1ncc2cc(Br)c(=O)n(Cc3ccc(-c4nc(C(F)(F)F)cn4C)cc3)c2n1 [Compound I-40] |
| 0.01 to 0.1 | 7.00 to 8.00 |  |  | CCn1cc(C(F)(F)F)nc1-c1ccc(Cn2c(=O)c(C(=O)N(C)C)cc3cnc(-c4c(OC)ncnc4C4CC4)nc32)cc1 [Compound I-39, 2-(4-cyclopropyl-6-methoxypyrimidin-5-yl)-8-({4-[1-ethyl-4-(trifluoromethyl)imidazo]-2-yl]phenylmethyl)-N,N-dimethyl-7-oxopyrido[2,3-d]pyrimidine-6-carb oxamide] |
|  |  | < 10 | < 10 | COc1ncnc(C2CC2)c1-c1ncc2cc(-c3cnn(C)c3)c(=O)n(Cc3ccc(-c4nc(C(F)(F)F)cn4C)cc3)c2n1 [Compound I-64] |
|  |  | 10 to 50 | ≥ 100 | COc1ncnc(C2CC2)c1-c1ncc2ccc(=O)n(Cc3ccc(-n4nc(C(F)(F)F)cc4C)cc3)c2n1 [Compound I-8, 2-(4-cyclopropyl-6-methoxypyrimidin-5-yl)-8-({4-[5-methyl-3-(trifluoromethyl)pyrazol-1-yl]phenyl}methyl)pyrido[2,3-d]pyrimidin-7-one] |
|  |  | 10 to 50 | 10 to 100 (≈ 6.54 to 65.4 µg/mL) | COc1ncnc(C2CC2)c1-c1ncc2cc(-c3c(C)cnn3C)c(=O)n(Cc3ccc(-c4nc(C(F)(F)F)cn4C4CC4)cc3)c2n1 [Compound I-133] |
|  |  | 10 to 50 | ≥ 100 | COc1ncnc(C2CC2)c1-c1ncc2cc(-c3c(C)nn(C)c3C)c(=O)n(Cc3ccc(-c4nc(C(F)(F)F)cn4C4CC4)cc3)c2n1 [Compound I-129] |
|  |  | < 10 | 10 to 100 (≈ 5.9 to 59 µg/mL) | COc1cc(Cn2c(=O)ccc3cnc(-c4c(OC)ncnc4C4CC4)nc32)ccc1-c1nc(C(F)(F)F)cn1C1CC1 [Compound I-124] |
|  |  | < 10 | ≥ 100 | COc1ncnc(C2CC2)c1-c1nc(C)c2ccc(=O)n(Cc3ccc(-c4nc(C(F)(F)F)cn4C4CC4)cc3)c2n1 [Compound I-135] |
|  |  | < 10 | ≥ 100 | COc1ncnc(C2CC2)c1-c1ncc2cc(-c3cnn(CCO)c3)c(=O)n(Cc3ccc(-c4nc(C(F)(F)F)cn4C4CC4)cc3)c2n1 [Compound I-131] |
